Results reported in US8242159B2, “1,3-dihydro-5-isobenzofurancarbonitrile derivatives and pharmaceutical composition thereof for the treatment of premature ejaculation” (Dong-A Pharmaceutical. Co., Ltd, priority 2007, dated 2012).

Test system: Male Wistar rats
Test: p-PCA-induced ejaculation in anesthetized rats (ejaculation-delaying effect)
Format: in vivo, rat
Conditions: for Ratio: Number of responding animals/total animal number: 50 mg/kg oral in 1% HPMC, p-PCA 5 mg/kg i.p. 80 min later, observed 30 min; for Latency: Time to display the ejaculatory response: 50 mg/kg oral, p-PCA 5 mg/kg i.p., mean ± standard deviation of responding rats
Method: The compounds prepared in the above examples were evaluated to determine whether they have an effect of delaying ejaculation. The evaluation was carried out using an animal model according to a method described in Yonezawa et al., Life Sci. 2000, 67(25) p 3031-9. Male Wistar rats weighing 240-260 g were used. Each compound was suspended in 1% HPMC, and then administered orally to each animal. After 60 min, the animals were anesthetized and fixed. 20 min later, para-chloroamphetamine (p-PCA) was intraperitoneally administered in a dose of 5 mg/kg in order to induce ejaculation. […] An ejaculatory response was considered to be elicited when rhythmic contraction of bulbocavernosus muscles and semen discharge occurs. Six or more animals were used for each compound. A Fisher's […] test was performed for the comparison of the proportion of responding rats (ejaculated rats) to determine significance of difference between a treatment group and a vehicle control. The time to reach ejaculation was expressed as mean±standard deviation.
Each test compound was administered at a dose of 50 mg/kg. Ejaculation was elicited in all seven animals of a control group.

SMILES | Ratio: Number of responding animals/total animal number | Latency: Time to display the ejaculatory response
COc1ccc(C2(CCCN(C)C)OCc3cc(C#N)ccc32)cc1 (stereo not drawn) [Ex. 1, 1-(4-methoxyphenyl)-1-{3-(dimethylamino)propyl}-1,3-dihydro-5-isobenzofurancarbonitrile] | 5/9 | 1024 ± 256 s
COc1ccc(C2(CCCN(C)C)OCc3cc(C#N)ccc32)cc1.Cl (stereo not drawn) [Ex. 3, 1-{3-(dimethylamino)propyl}-1-(4-methoxyphenyl)-1,3-dihydro-5-isobenzofurancarbonitrile hydrochloride] | 1/6 | 1234 s
COc1ccc(C2(CCCn3ccnc3)OCc3cc(C#N)ccc32)cc1 (stereo not drawn) [Ex. 4, 1-{3-(imidazole-1-yl)propyl}-1-(4-methoxyphenyl)-1,3-dihydro-5-isobenzofurancarbonitrile] | 4/9 | 1300 ± 124 s
COc1ccc(C2(CCCn3ccnc3)OCc3cc(C#N)ccc32)cc1.Cl (stereo not drawn) [Ex. 5, 1-{13-(imidazole-1-yl)propyl}-1-(4-methoxyphenyl)-1,3-dihydro-5-isobenzofurancarbonitrile hydrochloride] | 3/7 | 986 ± 342 s
COc1ccc(C2(CCn3ccnc3)OCc3cc(C#N)ccc32)cc1 (stereo not drawn) [Ex. 6, 1-{2-(imidazole-1-yl)ethyl}-1-(4-methoxyphenyl)-1,3-dihydro-5-isobenzofurancarbonitrile] | 4/7 | 889 ± 284 s
COc1ccc(C2(CCn3ccnc3)OCc3cc(C#N)ccc32)cc1.Cl (stereo not drawn) [Ex. 7, 1-{2-(imidazole-1-yl)ethyl}-1-(4-methoxyphenyl)-1,3-dihydro-5-isobenzofurancarbonitrile hydrochloride] | 5/9 | 963 ± 304 s
COc1ccc(C2(CCCn3cccn3)OCc3cc(C#N)ccc32)cc1 (stereo not drawn) [Ex. 8, 1-(4-methoxyphenyl)-1-{3-(pyrazole-1-yl)propyl}-1,3-dihydro-5-isobenzofurancarbonitrile] | 4/9 | 1230 ± 421 s
COc1ccc(C2(CCCn3cccn3)OCc3cc(C#N)ccc32)cc1.Cl (stereo not drawn) [Ex. 9, 1-(4-methoxyphenyl)-1-{3-(pyrazole-1-yl)propyl}-1,3-dihydro-5-isobenzofurancarbonitrile hydrochloride] | 4/7 | 950 ± 245 s
COc1ccc(C2(CCn3cccn3)OCc3cc(C#N)ccc32)cc1 (stereo not drawn) [Ex. 10, 1-(4-methoxyphenyl)-1-{2-(pyrazole-1-yl)ethyl}-1,3-dihydro-5-isobenzofurancarbonitrile] | 4/9 | 889 ± 360 s
COc1ccc(C2(CCn3cccn3)OCc3cc(C#N)ccc32)cc1.Cl (stereo not drawn) [Ex. 11, 1-(4-methoxyphenyl)-1-{2-(pyrazole-1-yl)ethyl}-1,3-dihydro-5-isobenzofurancarbonitrile hydrochloride] | 3/7 | 974 ± 289 s
CN(C)CCCC1(c2ccccc2)OCc2cc(C#N)ccc21 (stereo not drawn) [Ex. 12, 1-{3-(dimethylamino)propyl}-1-phenyl-1,3-dihydro-5-isobenzofurancarbonitrile] | 4/9 | 1025 ± 189 s
CN(C)CCCC1(c2ccccc2)OCc2cc(C#N)ccc21.Cl (stereo not drawn) [Ex. 13, 1-{3-(dimethylamino)propyl}-1-phenyl-1,3-dihydro-5-isobenzofurancarbonitrile hydrochloride] | 1/6 | 327 s
CN(C)CCC1(c2ccccc2)OCc2cc(C#N)ccc21 (stereo not drawn) [Ex. 14, 1-{2-(dimethylamino)ethyl}-1-phenyl-1,3-dihydro-5-isobenzofurancarbonitrile] | 3/7 | 1032 ± 451 s
CN(C)CCC1(c2ccccc2)OCc2cc(C#N)ccc21.Cl (stereo not drawn) [Ex. 15, 1-{2-(dimethylamino)ethyl}-1-phenyl-1,3-dihydro-5-isobenzofurancarbonitrile hydrochloride] | 4/9 | 1345 ± 510 s
N#Cc1ccc2c(c1)COC2(CCCn1ccnc1)c1ccccc1 (stereo not drawn) [Ex. 16, 1-{3-(imidazole-1-yl)propyl}-1-phenyl-1,3-dihydro-5-isobenzofurancarbonitrile] | 4/9 | 856 ± 365 s
Cl.N#Cc1ccc2c(c1)COC2(CCCn1ccnc1)c1ccccc1 (stereo not drawn) [Ex. 17, 1-{3-(imidazole-1-yl)propyl}-1-phenyl-1,3-dihydro-5-isobenzofurancarbonitrile hydrochloride] | 3/6 | 949 ± 330 s
N#Cc1ccc2c(c1)COC2(CCn1ccnc1)c1ccccc1 (stereo not drawn) [Ex. 18, 1-{2-(imidazole-1-yl)ethyl}-1-phenyl-1,3-dihydro-5-isobenzofurancarbonitrile] | 3/7 | 691 ± 361 s
Cl.N#Cc1ccc2c(c1)COC2(CCn1ccnc1)c1ccccc1 (stereo not drawn) [Ex. 19, 1-{2-(imidazole-1-yl)ethyl}-1-phenyl-1,3-dihydro-5-isobenzofurancarbonitrile hydrochloride] | 5/9 | 954 ± 275 s
N#Cc1ccc2c(c1)COC2(CCn1cccn1)c1ccccc1 (stereo not drawn) [Ex. 20, 1-phenyl-1-{2-(pyrazole-1-yl)ethyl}-1,3-dihydro-5-isobenzofurancarbonitrile] | 3/7 | 978 ± 378 s
Cl.N#Cc1ccc2c(c1)COC2(CCn1cccn1)c1ccccc1 (stereo not drawn) [Ex. 21, 1-phenyl-1-{2-(pyrazole-1-yl)ethyl}-1,3-dihydro-5-isobenzofurancarbonitrile hydrochloride] | 4/7 | 799 ± 387 s
Cc1ccc(C2(CCCN(C)C)OCc3cc(C#N)ccc32)cc1 (stereo not drawn) [Ex. 22, 1-{3-(dimethylamino)propyl}-1-(4-tolyl)-1,3-dihydro-5-isobenzofurancarbonitrile] | 3/7 | 830 ± 287 s
Cc1ccc(C2(CCCN(C)C)OCc3cc(C#N)ccc32)cc1.Cl (stereo not drawn) [Ex. 23, 1-{3-(dimethylamino)propyl}-1-(4-tolyl)-1,3-dihydro-5-isobenzofurancarbonitrile hydrochloride] | 4/7 | 967 ± 274 s
Cc1ccc(C2(CCN(C)C)OCc3cc(C#N)ccc32)cc1 (stereo not drawn) [Ex. 24, 1-{2-(dimethylamino)ethyl}-1-(4-tolyl)-1,3-dihydro-5-isobenzofurancarbonitrile] | 3/7 | 1021 ± 367 s
Cc1ccc(C2(CCN(C)C)OCc3cc(C#N)ccc32)cc1.Cl (stereo not drawn) [Ex. 25, 1-{2-(dimethylamino)ethyl}-1-(4-tolyl)-1,3-dihydro-5-isobenzofurancarbonitrile hydrochloride] | 4/9 | 841 ± 254 s
Cc1ccc(C2(CCCn3ccnc3)OCc3cc(C#N)ccc32)cc1 (stereo not drawn) [Ex. 26, 1-{3-(imidazole-1-yl)propyl}-1-(4-tolyl)-1,3-dihydro-5-isobenzofurancarbonitrile] | 4/7 | 904 ± 304 s
Cc1ccc(C2(CCCn3ccnc3)OCc3cc(C#N)ccc32)cc1.Cl (stereo not drawn) [Ex. 27, 1-{3-(imidazole-1-yl)propyl}-1-(4-tolyl)-1,3-dihydro-5-isobenzofurancarbonitrile hydrochloride] | 3/7 | 864 ± 257 s
Cc1ccc(C2(CCn3ccnc3)OCc3cc(C#N)ccc32)cc1 (stereo not drawn) [Ex. 28, 1-{2-(imidazole-1-yl)ethyl}-1-(4-tolyl)-1,3-dihydro-5-isobenzofurancarbonitrile] | 3/7 | 734 ± 451 s
Cc1ccc(C2(CCn3ccnc3)OCc3cc(C#N)ccc32)cc1.Cl (stereo not drawn) [Ex. 29, 1-{2-(imidazole-1-yl)ethyl}-1-(4-tolyl)-1,3-dihydro-5-isobenzofurancarbonitrile hydrochloride] | 5/9 | 1054 ± 287 s
Cc1ccc(C2(CCCn3cccn3)OCc3cc(C#N)ccc32)cc1 (stereo not drawn) [Ex. 30, 1-{3-(pyrazole-1-yl)propyl}-1-(4-tolyl)-1,3-dihydro-5-isobenzofurancarbonitrile] | 3/7 | 876 ± 300 s
Cc1ccc(C2(CCCn3cccn3)OCc3cc(C#N)ccc32)cc1.Cl (stereo not drawn) [Ex. 31, 1-{3-(pyrazole-1-yl)propyl}-1-(4-tolyl)-1,3-dihydro-5-isobenzofurancarbonitrile hydrochloride] | 3/9 | 754 ± 401 s
